Patent US12077503B2, “Substituted cyclic amides and their use as herbicides” (FMC CORPORATION, priority 2015, dated 2024)

How the values were obtained:
Type in all cases: in vivo
[1] = tested on: velvetleaf (Abutilon theophrasti); assay: Test G Post-Emergence Protocol; conditions: Abutilon theophrasti, post-emergence, 312 h; for pest or weed control at 15.625 g/ha: 15.625 g ai/ha, evaluated after 13 days (100=total damage to plant; 0=no damage to plant), read-out: Velvetleaf damage rating; for pest or weed control at 62.5 g/ha: 62.5 g ai/ha, read-out: Velvetleaf damage rating (100=total damage to plant; 0=no damage to plant); for pest or weed control at 62.5 g/ha / pest or weed control at 250 g/ha: evaluated after 13 days; for pest or weed control at 250 g/ha: 250 g ai/ha, read-out: damage to plant, Velvetleaf (100=total damage to plant; 0=no damage to plant)
Outline: (§1)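 Scores run 0 (no damage) to 100 (total damage) and were taken 13 days after spraying. Plants had been raised in pots for 8 days under glasshouse control (24/16 °C, 14 h photoperiod, 65% humidity) and then treated at 15.625, 62.5 or 250 g/ha.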

[2] = tested on: corn (Zea mays); assay: Test G Post-Emergence Protocol; conditions: Zea mays, post-emergence, 312 h; for plant injury at 15.625 g/ha: 15.625 g ai/ha, evaluated after 13 days (100=total damage to plant; 0=no damage to plant), read-out: Corn damage rating; for plant injury at 62.5 g/ha: 62.5 g ai/ha, read-out: Corn damage rating (100=total damage to plant; 0=no damage to plant); for plant injury at 62.5 g/ha / plant injury at 250 g/ha: evaluated after 13 days; for plant injury at 250 g/ha: 250 g ai/ha, read-out: damage to plant, Corn (100=total damage to plant; 0=no damage to plant)
Outline: as §1

[3] = tested on: ivy-leaved morning glory (Ipomoea hederacea); assay: Test G Post-Emergence Protocol; conditions: Ipomoea, post-emergence, 312 h; for pest or weed control at 15.625 g/ha: 15.625 g ai/ha, evaluated after 13 days (100=total damage to plant; 0=no damage to plant), read-out: Morningglory, Ivy-leaved damage rating; for pest or weed control at 62.5 g/ha: 62.5 g ai/ha, read-out: Morningglory, Ivy-leaved damage rating (100=total damage to plant; 0=no damage to plant); for pest or weed control at 62.5 g/ha / pest or weed control at 250 g/ha: evaluated after 13 days; for pest or weed control at 250 g/ha: 250 g ai/ha, read-out: damage to plant, Morningglory, Ivy-leaved (100=total damage to plant; 0=no damage to plant)
Outline: as §1

[4] = tested on: redroot pigweed (Amaranthus retroflexus); assay: Test G Post-Emergence Protocol; conditions: Amaranthus retroflexus, post-emergence, 312 h; for pest or weed control at 15.625 g/ha: 15.625 g ai/ha, evaluated after 13 days (100=total damage to plant; 0=no damage to plant), read-out: Pigweed, Redroot damage rating; for pest or weed control at 62.5 g/ha: 62.5 g ai/ha, read-out: Pigweed, Redroot damage rating (100=total damage to plant; 0=no damage to plant); for pest or weed control at 62.5 g/ha / pest or weed control at 250 g/ha: evaluated after 13 days; for pest or weed control at 250 g/ha: 250 g ai/ha, read-out: damage to plant, Pigweed, Redroot (100=total damage to plant; 0=no damage to plant)
Outline: as §1

[5] = tested on: barnyardgrass (Echinochloa crus-galli); assay: Test G Post-Emergence Protocol; conditions: Echinochloa crus-galli, post-emergence, 312 h; for pest or weed control at 15.625 g/ha: 15.625 g ai/ha, evaluated after 13 days (100=total damage to plant; 0=no damage to plant), read-out: Barnyardgrass damage rating; for pest or weed control at 62.5 g/ha: 62.5 g ai/ha, read-out: Barnyardgrass damage rating (100=total damage to plant; 0=no damage to plant); for pest or weed control at 62.5 g/ha / pest or weed control at 250 g/ha: evaluated after 13 days; for pest or weed control at 250 g/ha: 250 g ai/ha, read-out: damage to plant, Barnyardgrass (100=total damage to plant; 0=no damage to plant)
Outline: as §1

[6] = tested on: giant foxtail (Setaria faberi); assay: Test G Post-Emergence Protocol; conditions: Setaria faberi, post-emergence, 312 h; for pest or weed control at 15.625 g/ha: 15.625 g ai/ha, evaluated after 13 days (100=total damage to plant; 0=no damage to plant), read-out: Foxtail, Giant damage rating; for pest or weed control at 62.5 g/ha: 62.5 g ai/ha, read-out: Foxtail, Giant damage rating (100=total damage to plant; 0=no damage to plant); for pest or weed control at 62.5 g/ha / pest or weed control at 250 g/ha: evaluated after 13 days; for pest or weed control at 250 g/ha: 250 g ai/ha, read-out: damage to plant, Foxtail, Giant (100=total damage to plant; 0=no damage to plant)
Outline: as §1

[7] = tested on: velvetleaf (Abutilon theophrasti); assay: Test G Pre-Emergence Protocol; conditions: Abutilon theophrasti, pre-emergence, 312 h, evaluated after 13 days; for pest or weed control at 15.625 g/ha: 15.625 g ai/ha; for pest or weed control at 15.625 g/ha / pest or weed control at 250 g/ha: read-out: Velvetleaf damage rating (100=total damage to plant; 0=no damage to plant); for pest or weed control at 62.5 g/ha: 62.5 g ai/ha, 100=total damage to plant, 0=no damage to plant, read-out: plant damage rating, Velvetleaf; for pest or weed control at 250 g/ha: 250 g ai/ha
Outline: (§2)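 Seeds were sown in standard soil and kept one day in a glasshouse (24/16° C day/night, 14 h light, 65% humidity), then sprayed with compound in acetone/water (50:50) containing 0.5% Tween 20 at 15.625, 62.5 or 250 g/ha. Damage was scored after 13 days (0 = none, 100 = total).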

[8] = tested on: corn (Zea mays); assay: Test G Pre-Emergence Protocol; conditions: Zea mays, pre-emergence, 312 h, evaluated after 13 days; for plant injury at 15.625 g/ha: 15.625 g ai/ha; for plant injury at 15.625 g/ha / plant injury at 250 g/ha: read-out: Corn damage rating (100=total damage to plant; 0=no damage to plant); for plant injury at 62.5 g/ha: 62.5 g ai/ha, 100=total damage to plant, 0=no damage to plant, read-out: plant damage rating, Corn; for plant injury at 250 g/ha: 250 g ai/ha
Outline: as §2

[9] = tested on: ivy-leaved morning glory (Ipomoea hederacea); assay: Test G Pre-Emergence Protocol; conditions: Ipomoea, pre-emergence, 312 h, evaluated after 13 days; for pest or weed control at 15.625 g/ha: 15.625 g ai/ha, read-out: Morning-glory, Ivy-leaved damage rating (100=total damage to plant; 0=no damage to plant); for pest or weed control at 62.5 g/ha: 62.5 g ai/ha, 100=total damage to plant, 0=no damage to plant, read-out: plant damage rating, Morningglory, Ivy-leaved; for pest or weed control at 250 g/ha: 250 g ai/ha, read-out: Morningglory, Ivy-leaved damage rating (100=total damage to plant; 0=no damage to plant)
Outline: as §2

[10] = tested on: redroot pigweed (Amaranthus retroflexus); assay: Test G Pre-Emergence Protocol; conditions: Amaranthus retroflexus, pre-emergence, 312 h, evaluated after 13 days; for pest or weed control at 15.625 g/ha: 15.625 g ai/ha; for pest or weed control at 15.625 g/ha / pest or weed control at 250 g/ha: read-out: Pigweed, Redroot damage rating (100=total damage to plant; 0=no damage to plant); for pest or weed control at 62.5 g/ha: 62.5 g ai/ha, 100=total damage to plant, 0=no damage to plant, read-out: plant damage rating, Pigweed, Redroot; for pest or weed control at 250 g/ha: 250 g ai/ha
Outline: as §2

[11] = tested on: barnyardgrass (Echinochloa crus-galli); assay: Test G Pre-Emergence Protocol; conditions: Echinochloa crus-galli, pre-emergence, 312 h, evaluated after 13 days; for pest or weed control at 15.625 g/ha: 15.625 g ai/ha, read-out: Barnyard grass damage rating (100=total damage to plant; 0=no damage to plant); for pest or weed control at 62.5 g/ha: 62.5 g ai/ha, 100=total damage to plant, 0=no damage to plant, read-out: plant damage rating, Barnyardgrass; for pest or weed control at 250 g/ha: 250 g ai/ha, read-out: Barnyardgrass damage rating (100=total damage to plant; 0=no damage to plant)
Outline: as §2

[12] = tested on: giant foxtail (Setaria faberi); assay: Test G Pre-Emergence Protocol; conditions: Setaria faberi, pre-emergence, 312 h, evaluated after 13 days; for pest or weed control at 15.625 g/ha: 15.625 g ai/ha; for pest or weed control at 15.625 g/ha / pest or weed control at 250 g/ha: read-out: Foxtail, Giant damage rating (100=total damage to plant; 0=no damage to plant); for pest or weed control at 62.5 g/ha: 62.5 g ai/ha, 100=total damage to plant, 0=no damage to plant, read-out: plant damage rating, Foxtail, Giant; for pest or weed control at 250 g/ha: 250 g ai/ha
Outline: as §2

## Cc1nc(NC(=O)[C@@H]2C(=O)N(C)C[C@H]2c2ccc(C(F)(F)F)cc2)ccc1Cl (racemic) [Compound 1642]
[1]
  pest or weed control at 15.625 g/ha: 0%
  pest or weed control at 62.5 g/ha: 0%
  pest or weed control at 250 g/ha: 0%
[2]
  plant injury at 15.625 g/ha: 0%
  plant injury at 62.5 g/ha: 0%
  plant injury at 250 g/ha: 0%
[3]
  pest or weed control at 15.625 g/ha: 0%
  pest or weed control at 62.5 g/ha: 0%
  pest or weed control at 250 g/ha: 0%
[4]
  pest or weed control at 15.625 g/ha: 0%
  pest or weed control at 62.5 g/ha: 0%
  pest or weed control at 250 g/ha: 20%
[5]
  pest or weed control at 15.625 g/ha: 0%
  pest or weed control at 62.5 g/ha: 0%
  pest or weed control at 250 g/ha: 10%
[6]
  pest or weed control at 15.625 g/ha: 0%
  pest or weed control at 62.5 g/ha: 30%
  pest or weed control at 250 g/ha: 70%
[7]
  pest or weed control at 15.625 g/ha: 0%
  pest or weed control at 62.5 g/ha: 0%
  pest or weed control at 250 g/ha: 0%
[8]
  plant injury at 15.625 g/ha: 0%
  plant injury at 62.5 g/ha: 0%
  plant injury at 250 g/ha: 10%
[9]
  pest or weed control at 15.625 g/ha: 0%
  pest or weed control at 62.5 g/ha: 0%
  pest or weed control at 250 g/ha: 0%
[10]
  pest or weed control at 15.625 g/ha: 0%
  pest or weed control at 62.5 g/ha: 0%
  pest or weed control at 250 g/ha: 0%
[11]
  pest or weed control at 15.625 g/ha: 0%
  pest or weed control at 62.5 g/ha: 0%
  pest or weed control at 250 g/ha: 0%
[12]
  pest or weed control at 15.625 g/ha: 0%
  pest or weed control at 62.5 g/ha: 0%
  pest or weed control at 250 g/ha: 20%

## CN1C[C@@H](c2ccc(C(F)(F)F)nc2)[C@H](C(=O)Nc2ccccc2F)C1=O (racemic) [Compound 1419]
[1]
  pest or weed control at 15.625 g/ha: 10%
  pest or weed control at 62.5 g/ha: 10%
  pest or weed control at 250 g/ha: 0%
[2]
  plant injury at 15.625 g/ha: 10%
  plant injury at 62.5 g/ha: 10%
  plant injury at 250 g/ha: 20%
[3]
  pest or weed control at 15.625 g/ha: 0%
  pest or weed control at 62.5 g/ha: 20%
  pest or weed control at 250 g/ha: 10%
[4]
  pest or weed control at 15.625 g/ha: 10%
  pest or weed control at 62.5 g/ha: 20%
  pest or weed control at 250 g/ha: 30%
[5]
  pest or weed control at 15.625 g/ha: 30%
  pest or weed control at 62.5 g/ha: 50%
  pest or weed control at 250 g/ha: 60%
[6]
  pest or weed control at 15.625 g/ha: 10%
  pest or weed control at 62.5 g/ha: 60%
  pest or weed control at 250 g/ha: 70%
[7]
  pest or weed control at 15.625 g/ha: 0%
  pest or weed control at 62.5 g/ha: 0%
  pest or weed control at 250 g/ha: 0%
[8]
  plant injury at 15.625 g/ha: 0%
  plant injury at 62.5 g/ha: 0%
  plant injury at 250 g/ha: 50%
[9]
  pest or weed control at 15.625 g/ha: 0%
  pest or weed control at 62.5 g/ha: 0%
  pest or weed control at 250 g/ha: 60%
[10]
  pest or weed control at 15.625 g/ha: 0%
  pest or weed control at 62.5 g/ha: 0%
  pest or weed control at 250 g/ha: 70%
[11]
  pest or weed control at 15.625 g/ha: 10%
  pest or weed control at 62.5 g/ha: 80%
  pest or weed control at 250 g/ha: 90%
[12]
  pest or weed control at 15.625 g/ha: 10%
  pest or weed control at 62.5 g/ha: 80%
  pest or weed control at 250 g/ha: 90%
